# According to patent US7807781B2, “Inhibitors of serine protease activity and their use in methods and compositions for treatment of viral infections” (The Regents of the University of Colorado, priority 1999, dated 2010):
# Where two headings read alike, the source gives them in different places.
# What was measured:
# [1] = system: HIV-1 production in U1 cells; assay: U1 monocytic cell assay, IL-6-induced HIV-1 p24 antigen; format: cell-based; conditions: for p24 antigen: 100 ng/ml IL-6
# [2] = system: HIV-1 production in U1 cells; assay: U1 monocytic cell assay, TNF-induced HIV-1 p24 antigen; format: cell-based; conditions: for TNF-induced p24 antigen: 3.0 ng/ml TNF
# [3] = system: HIV-1 production in U1 cells; assay: U1 monocytic cell assay, LPS-induced HIV-1 p24 antigen; format: cell-based; conditions: for p24 antigen: 500 ng/ml LPS, 48 hrs
# U1 cells = assay: U1 cell proliferation and viability (hemacytometer, trypan blue exclusion); format: cell-based, human; conditions: 5 mg/ml AAT, 48 hrs
# Experimental: To evaluate the effect of AAT on U1 cell proliferation and viability, 3 experiments are performed in the presence or absence of 5 mg/ml AAT. U1 cells are added at 1×10^6 cells per ml and cultured for 48 hrs. Following incubation, cells are quantified using a hemacytometer. The mean±SEM cell concentrations in control and AAT-containing cultures are 2.5×10^6±0.5×10^6 and 2.4×10^6±0.3×10^6 respectively. […] For all cultures, cell viability by trypan blue exclusion is >95%. The lack of toxicity is illustrated in FIG. 13.
# [4] = system: lymphocyte-tropic HIV-1 strain A018A in PBMC; format: cell-based
# [5] = system: HIV-1 strain A018A in MAGI-CCR-5 cells; format: cell-based; conditions: for mean positive cell count: +HIV-1; for inhibition of MAGI-CCR-5 cell early infection events: compared to HIV-1 alone
# NF-κB = assay: IL-18-induced NF-κB expression; format: cell-based; conditions: compared with IL-18 alone (lane 4)
substance,measurement,setting,value
AAT: Alpha-1-antitrypsin purified from the blood of healthy volunteers to single-band homogeneity,p24 antigen,[1]; AAT 0.1 mg/ml,"6,228±2,129 pg/ml"
same,p24 antigen,[1]; AAT 0.5 mg/ml,"3,992±1,987 pg/ml"
same,p24 antigen,[1]; AAT 1 mg/ml,"3,850±1,943 pg/ml"
same,p24 antigen,[1]; AAT 2 mg/ml,"2,597±1,253 pg/ml"
same,p24 antigen,[1]; AAT 3 mg/ml,"2,155±1,085 pg/ml"
same,p24 antigen,[1]; AAT 4 mg/ml,"1,838±881 pg/ml"
same,p24 antigen,[1]; AAT 5 mg/ml,"1,213±668 pg/ml"
same,mean percent reduction of IL-6-induced p24,[1]; AAT 3 mg/ml,80%
same,mean percent reduction of IL-6-induced p24,[1]; AAT 4 mg/ml,88%
same,mean percent reduction of IL-6-induced p24,[1]; AAT 5 mg/ml,100%
same,TNF-induced p24 antigen,[2]; AAT 0.1 mg/ml,"16,405±8,449 pg/ml"
same,TNF-induced p24 antigen,[2]; AAT 0.5 mg/ml,"16,863±7,718 pg/ml"
same,TNF-induced p24 antigen,[2]; AAT 1 mg/ml,"15,328±7,129 pg/ml"
same,TNF-induced p24 antigen,[2]; AAT 2 mg/ml,"12,566±4,981 pg/ml"
same,TNF-induced p24 antigen,[2]; AAT 3 mg/ml,"9,341±2,730 pg/ml"
same,TNF-induced p24 antigen,[2]; AAT 4 mg/ml,"9,091±3,436 pg/ml"
same,TNF-induced p24 antigen,[2]; AAT 5 mg/ml,"6,868±2,737 pg/ml"
same,mean percent reduction in TNF-induced p24 antigen,[2]; AAT 3 mg/ml,56%
same,mean percent reduction in TNF-induced p24 antigen,[2]; AAT 4 mg/ml,60%
same,mean percent reduction in TNF-induced p24 antigen,[2]; AAT 5 mg/ml,73%
same,p24 antigen,[3]; AAT 1 mg/ml,"1,108±241 pg/ml"
same,p24 antigen,[3]; AAT 2 mg/ml,913 ± 287 pg/mL
same,p24 antigen,[3]; AAT 5 mg/ml,626 ± 257 pg/mL
same,inhibition of LPS-induced p24 production,[3]; AAT 3 mg/ml,71%
same,inhibition of LPS-induced p24 production,[3]; AAT 4 mg/ml,90%
same,inhibition of LPS-induced p24 production,[3]; AAT 5 mg/ml,86%
same,cell viability by trypan blue exclusion,U1 cells,> 95%
same,mean±SEM cell concentration after culture,U1 cells; 1×10^6 cells per ml added initially,2.4×10^6±0.3×10^6 cells per ml
same,effect on p24 antigen production of AAT present during infection only,"[4]; AAT removed, 4 days of culture in medium alone",did not affect
same,p24 produced,"[4]; PBMC infected in absence of AAT, 4 days with AAT 0.1 mg/ml","8,687±1,304 pg/ml"
same,p24 produced,"[4]; PBMC infected in absence of AAT, 4 days with AAT 0.5 mg/ml","7,392±1,299 pg/ml"
same,p24 produced,"[4]; PBMC infected in absence of AAT, 4 days with AAT 1.0 mg/ml","6,613 pg/ml"
same,p24 produced,"[4]; PBMC infected in absence of AAT, 4 days with AAT 2.0 mg/ml","6,258±1,772 pg/ml"
same,p24 produced,"[4]; PBMC infected in absence of AAT, 4 days with AAT 3.0 mg/ml","5,275±316 pg/ml"
same,p24 produced,"[4]; PBMC infected in absence of AAT, 4 days with AAT 4.0 mg/ml","4,725±101 pg/ml"
same,p24 produced,"[4]; PBMC infected in absence of AAT, 4 days with AAT 5.0 mg/ml","3,508 pg/ml"
same,reduction in p24 antigen compared to control cultures,"[4]; PBMC infected in absence of AAT, AAT 4.0 mg/ml",22%
same,reduction in p24 antigen compared to control cultures,"[4]; PBMC infected in absence of AAT, AAT 5.0 mg/ml",46%
same,p24 produced,"[4]; PBMC infected in presence of 3 mg/ml AAT, 4 days with AAT 0.1 mg/ml","6,620±2,026 pg/ml"
same,p24 produced,"[4]; PBMC infected in presence of 3 mg/ml AAT, 4 days with AAT 0.5 mg/ml","6,047±1,322 pg/ml"
same,p24 produced,"[4]; PBMC infected in presence of 3 mg/ml AAT, 4 days with AAT 1.0 mg/ml","6,014±2,055 pg/ml"
same,p24 produced,"[4]; PBMC infected in presence of 3 mg/ml AAT, 4 days with AAT 2.0 mg/ml","2,516±345 pg/ml"
same,p24 produced,"[4]; PBMC infected in presence of 3 mg/ml AAT, 4 days with AAT 3.0 mg/ml","3,360±371 pg/ml"
same,p24 produced,"[4]; PBMC infected in presence of 3 mg/ml AAT, 4 days with AAT 4.0 mg/ml","2,743±316 pg/ml"
same,p24 produced,"[4]; PBMC infected in presence of 3 mg/ml AAT, 4 days with AAT 5.0 mg/ml","2,713±645 pg/ml"
same,reduction in p24 production compared to control cultures,"[4]; PBMC infected in presence of 3 mg/ml AAT, AAT 2.0 mg/ml",71%
same,reduction in p24 production compared to control cultures,"[4]; PBMC infected in presence of 3 mg/ml AAT, AAT 3.0 mg/ml",61%
same,reduction in p24 production compared to control cultures,"[4]; PBMC infected in presence of 3 mg/ml AAT, AAT 4.0 mg/ml",65%
same,reduction in p24 production compared to control cultures,"[4]; PBMC infected in presence of 3 mg/ml AAT, AAT 5.0 mg/ml",67%
same,Maximal p24 reduction in PBMC exposed to AAT for 4 days,[4]; cells infected in the absence of AAT,46%
same,Maximal p24 reduction in PBMC exposed to AAT for 4 days,[4]; cells infected in the presence of AAT,71%
same,mean positive cell count,[5]; AAT 0.1 mg/ml,74±13
same,mean positive cell count,[5]; AAT 1.0 mg/ml,75±17
same,mean positive cell count,[5]; AAT 3.0 mg/ml,45±12
same,mean positive cell count,[5]; AAT 4.0 mg/ml,28±9
same,mean positive cell count,[5]; AAT 5.0 mg/ml,21±12
same,inhibition of MAGI-CCR-5 cell early infection events,[5]; AAT 2.0 mg/ml,23%
same,inhibition of MAGI-CCR-5 cell early infection events,[5]; AAT 3.0 mg/ml,41%
same,inhibition of MAGI-CCR-5 cell early infection events,[5]; AAT 4.0 mg/ml,66%
same,inhibition of MAGI-CCR-5 cell early infection events,[5]; AAT 5.0 mg/ml,76%
same,IL-18-induced NF-κB expression,NF-κB,reduced
